Test results as given in patent US12493040B2, “Cancer detection method using sense of smell of nematode” (HIROTSU BIO SCIENCE INC., priority 2013, dated 2025).

Experiments:
nematodes (C. elegans) [1] = conditions: sri-14 mutant; 4M NaCl
Excerpt: The present inventor has used 4 M NaCl for osmotic stimulus, and has assayed an osmotic pressure avoidance behavior, as previously reported (38).

[2] = tested on: RNAi-treated eri-1 (mg366) nematodes; assay: RNAi screening of olfactory receptor genes: chemotaxis assay of RNAi-treated nematodes to odorants; format: in vivo, Caenorhabditis elegans; conditions: for chemotaxis index: low concentration of attractant
Procedure: The RNAi assay was carried out by performing an RNAi method involving the feeding (feeding RNAi method) of eri-1 (mg366) (19), using an Ahringer library (37).
(§1) Nine adult eri-1 mutants were placed on an NGM plate containing isopropyl 1-D-1-thiogalactopyranoside (0.19 g/L), ampicillin (60 mg/L), and Escherichia coli (E. coli), and were then cultured for 4 days. Subsequently, the adult worms were used in a chemotaxis assay. The chemotaxis assay was carried out as previously reported (6, 17). In the chemotaxis assay, the present inventor has used 30 to 50 worms in each experiment in which 1 μl of 10^−3- or 10^−4-diluted odorant (low concentration), or 1 and 5 μl of undiluted odorants (high concentration) were used.
The z score and a control value in each single test from 2SD were calculated in all days (Table 3) or every day. The z score was used as a threshold indicating a great difference (−1.96 and 1.96, P<0.05). […] Accordingly, the present inventor has used the z score±1 (−0.96 and 0.96, P<0.33) as a weaker threshold.

nematodes (C. elegans) [3] = assay: Chemotaxis assay of wild-type, mutant, neuron-specific knockdown, neuron-ablated or interneuron-inhibited nematodes to odorants; format: in vivo, Caenorhabditis elegans
Procedure: Except for the eri-1 mutant that was cultured with Escherichia coli (E. coli) OP50, the nematodes (C. elegans) were cultured at 20° C. under standard conditions in a nematode growth medium (NGM) plate (36) comprising Escherichia coli NA22 as a food source. The used wild-type nematodes were of a Bristol N2 strain. As other nematode strains, GR1373: eri-1 (mg366), VC2123: sri-14 (ok2865), CX3410: odr-10 (ky225), and MT7929: unc-13 (e51) were used.
as §1
A gene to knock down the function of sri-14 in specific neurons was constructed, as previously reported (24). The target region of sri-14 (a 1.6-kb genome sequence) was amplified using the following two primers: […]
The gene expression of ASH was carried out using a sra-6 (20) promoter, and that of AWC was carried out using ceh-36 (39) and srd-17 promoters.
The present inventor has used mouse caspase-1 (mCasp1) for ablation of the AWA, AWB, AWC and ASH neurons. mCasp1 was each expressed by odr-10 (11), str-1 (15), ceh-36 (39), and sra-6 (20) promoters, respectively. Moreover, for inhibition of interneurons, unc-103 (gf) was used. The AIA-, AIB-, AIY-, or AIZ-specific expression of the unc-103 (gf) was carried out using a gcy-28.d (29), npr-9 (40), ttx-3 (41, 42), or lin-11 (43, 44) promoter, respectively.
Total RNA, which had been isolated using PureLink RNA Minikit (Ambion), was converted to cDNA by ReverTra Ace qPCR master mix using gDNA Remover (Toyobo) in accordance with the instructions made by the manufacturer. The sri-14 cDNA was amplified using the following two primers, was then digested with Nhe I and Kpn I, and was then inserted into a pPD-DEST vector (Invitrogen): […]

AWA neurons = assay: Calcium imaging (YC3.60, microfluidic device) of AWA neurons to diacetyl; format: in vivo, Caenorhabditis elegans
Procedure: (§2) In order to monitor the response of the AWA, AWB, AWC and ASH neurons, the present inventor has produced strains expressing YC3.60, using odr-10, str-1, odr-3, and sra-6 promoters (11, 15, 20, and 45), respectively. As previously reported (33, 46, 47), calcium imaging was carried out using a microfluidic device. In an experiment using such a microfluidic device, a nematode was captured by a microchannel such that the nose of the nematode was exposed to running water containing a solution of diacetyl [10^−5-diluted (low concentration) and 10^−3-diluted (high concentration)], or a solution with no smell, and thus, each nematode was immobilized. The room temperature was set from 20° C. to 23° C. The fluorescence image of YC3.60 was taken using Zeiss Axioplan 2 comprising 40× objective lens and a 3CCD digital camera (C7780, Hamamatsu Photonics). All images were recovered at an exposure time of 200 ms. The time stacks of AWA, AWB, AWC, and ASH cell bodies were captured, and thereafter, using AquaCosmos software (ver. 2.6, Hamamatsu Photonics), the emission ratio between a yellow fluorescent protein (YFP) and a cyan fluorescent protein (CFP) was analyzed. This ratio was calculated as YEP intensity/CFP intensity (R), and the average ratio in 10-second window (−10 to 0 seconds) was set as RO.

ASH neurons = assay: Calcium imaging (YC3.60, microfluidic device) of ASH neurons to diacetyl; format: in vivo, Caenorhabditis elegans
Procedure: as §2

AWC neurons = assay: Calcium imaging (YC3.60, microfluidic device) of AWC neurons to diacetyl; format: in vivo, Caenorhabditis elegans; conditions: wild-type; removal of high concentration of diacetyl (10^−3 diluted)
Procedure: as §2

AWB neurons = assay: Calcium imaging (YC3.60, microfluidic device) of AWB neurons to diacetyl; format: in vivo, Caenorhabditis elegans
Procedure: as §2

[4] = high concentration of diacetyl (5 μl, undiluted)
[5] = unc-103 (gf) expression, high concentration of diacetyl (5 μl, undiluted)
[6] = high concentration of diacetyl (10^−3 diluted)
[7] = low concentration of diacetyl (10^−5 diluted)
[8] = low (10^−5 diluted) and high (10^−3 diluted) concentration of diacetyl

Structure (SMILES): [Cl-].[Na+] [NaCl]
- avoidance behavior to high osmotic stimulus (nematodes (C. elegans) [1]): normal avoidance behavior

Structure (SMILES): CC(=O)C(C)=O [diacetyl]
- avoidance from diacetyl after RNAi of sri-14 ([2]; RNAi of sri-14, high concentration of diacetyl (5 μl, undiluted)): significantly strong defect in the avoidance
- response (chemotaxis) to diacetyl after knockdown of odr-10 ([2]; eri-1 mutant, RNAi of odr-10, low concentration (10; diluted) of diacetyl): specific defect in the response
- avoidance behavior from diacetyl after RNAi of srh-25, srh-79, srh-216 or srh-281 ([2]; high concentration of diacetyl (5 μl, undiluted), repeated assay): significant and reproducible defect
- response of AWA and ASH double-ablated nematodes (nematodes (C. elegans) [3]; high concentration of diacetyl): more severe defect
- avoidance behavior of ASH-ablated nematodes (nematodes (C. elegans) [3]; [4]): avoidance behavior was inhibited
- avoidance defect of sri-14 mutant with ASH-specific expression of sri-14 cDNA (nematodes (C. elegans) [3]; [4]): rescued
- avoidance defect of sri-14 mutant with AWA-, AWB- or AWC-specific expression of sri-14 cDNA (nematodes (C. elegans) [3]; [4]): partially rescued or was not rescued
- avoidance of AWA-ablated nematodes (nematodes (C. elegans) [3]; [4]): decrease in the avoidance
- chemotaxis of AWB- or AWC-ablated nematodes (nematodes (C. elegans) [3]; [4]): did not exhibit a defect in the chemotaxis
- attraction of AWA-ablated nematodes (nematodes (C. elegans) [3]; low concentration of diacetyl (10^−3 diluted)): decrease in the attraction
- attraction of nematodes with interneurons inhibited (nematodes (C. elegans) [3]; low concentration of diacetyl (10^−3 diluted), except for MY): not influenced
- chemotaxis of odr-10 mutant (nematodes (C. elegans) [3]; high concentration of diacetyl): normal chemotaxis
- chemotaxis of odr-10 mutant (nematodes (C. elegans) [3]; low concentration of diacetyl): reduced attraction
- avoidance response of sri-14 mutant (nematodes (C. elegans) [3]; sri-14 (ok2865) mutant, high concentration of diacetyl): defect in the avoidance response
- reaction of sri-14 loss-of-function mutant (nematodes (C. elegans) [3]; sri-14 mutant, low concentration of diacetyl): normal reaction
- response of nematodes with AIA, AIY or AIZ interneurons inhibited (nematodes (C. elegans) [3]; [5]): from an avoidance response to an attraction response
- response of nematodes with AIB interneurons inhibited (nematodes (C. elegans) [3]; [5]): attenuated the avoidance response
- avoidance from diacetyl, ASH-specific knockdown of sri-14 (nematodes (C. elegans) [3]; wild-type nematode, ASH-specific RNAi of sri-14, high concentration of diacetyl (5 μl, undiluted)): defect in the avoidance
- avoidance from diacetyl, AWC-specific knockdown of sri-14 (nematodes (C. elegans) [3]; wild-type nematode, AWC-specific RNAi of sri-14, high concentration of diacetyl (5 μl, undiluted)): abnormality was not observed
- calcium response of AWA neurons, odr-10 mutants and wild-type nematodes (AWA neurons; [6]): normally responded
- calcium response of AWA neurons, odr-10 mutants (AWA neurons; [7]): did not respond
- calcium response of AWA neurons, wild-type nematodes or sri-14 mutants (AWA neurons; [7]): intracellular calcium was increased
- Ca2+ response of ASH neurons, odr-10 mutant (ASH neurons; [6]): normally induced
- Ca2+ response of ASH neurons, sri-14 mutant (ASH neurons; [6]): significantly reduced
- Ca2+ response of ASH, ASH-specific knockdown of sri-14 in wild-type nematodes (ASH neurons; [6]): reduced
- calcium response of ASH neurons, AWA-ablated nematodes (ASH neurons; [6]): enhances the calcium response
- defect in ASH response of sri-14 mutant with ASH-specific expression of wild-type sri-14 (ASH neurons; [6]): rescued
- Ca2+ response of ASH neurons, wild-type nematodes (ASH neurons; [8]): Ca2+ response only to a high concentration of diacetyl was detected
- calcium response of ASH neurons, unc-13 mutants vs wild type (ASH neurons; unc-13(e51), high concentration of diacetyl (10^−3 diluted)): significantly larger
- Ca2+ response of AWC neurons after removal of diacetyl (AWC neurons): a Ca2+ response occurs
- Ca2+ response of wild-type AWB neurons after removal of the smell (AWB neurons; [8]): slight Ca2+ response
- Ca2+ response of AWB neurons with ectopic expression of SRI-14 (AWB neurons; removal of high concentration of diacetyl (10^−3 diluted), vs wild-type AWB): significantly enhanced
- Ca2+ response of AWB neurons with ectopic expression of SRI-14 (AWB neurons; removal of low concentration of diacetyl (10^−5 diluted)): did not change the response

Structure (SMILES): CC(C)CCO [isoamyl alcohol]
- chemotaxis index ([2]; srh-10 RNAi-treated nematodes): −0.12
- chemotaxis index ([2]; srh-11 RNAi-treated nematodes): 0.05
- chemotaxis index ([2]; srh-15 RNAi-treated nematodes): 0.59
- chemotaxis index ([2]; srh-16 RNAi-treated nematodes): 0.86
- chemotaxis index ([2]; srh-18 RNAi-treated nematodes): 0.67
- chemotaxis index ([2]; srh-19 RNAi-treated nematodes): 0.67
- chemotaxis index ([2]; srh-22 RNAi-treated nematodes): 0.58
- chemotaxis index ([2]; srh-23 RNAi-treated nematodes): 0.54
- chemotaxis index ([2]; srh-24 RNAi-treated nematodes): 0.58
- chemotaxis index ([2]; srh-214 RNAi-treated nematodes): 0.63
- chemotaxis index ([2]; srh-216 RNAi-treated nematodes): 0.76
- chemotaxis index ([2]; srh-217 RNAi-treated nematodes): −0.12
- chemotaxis index ([2]; srh-220 RNAi-treated nematodes): 0.81
- chemotaxis index ([2]; srh-222 RNAi-treated nematodes): 0.80
- chemotaxis index ([2]; srh-223 RNAi-treated nematodes): 0.51
- chemotaxis index ([2]; srh-227 RNAi-treated nematodes): 0.43
- chemotaxis index ([2]; srh-229 RNAi-treated nematodes): −0.20
- chemotaxis index ([2]; srh-233 RNAi-treated nematodes): 0.36
- chemotaxis index ([2]; srh-235 RNAi-treated nematodes): 0.64
- chemotaxis index ([2]; srh-236 RNAi-treated nematodes): 0.41
- chemotaxis index ([2]; srh-239 RNAi-treated nematodes): 0.57
- chemotaxis index ([2]; srh-241 RNAi-treated nematodes): 0.63
- chemotaxis index ([2]; srh-243 RNAi-treated nematodes): 0.46
- chemotaxis index ([2]; srh-244 RNAi-treated nematodes): 0.74
- chemotaxis index ([2]; srh-247 RNAi-treated nematodes): 0.60
- chemotaxis index ([2]; srh-250 RNAi-treated nematodes): 0.47
- chemotaxis index ([2]; srh-251 RNAi-treated nematodes): 0.75
- chemotaxis index ([2]; srh-252 RNAi-treated nematodes): 0.59
- chemotaxis index ([2]; srh-258 RNAi-treated nematodes): 0.78
- chemotaxis index ([2]; srh-261 RNAi-treated nematodes): 0.51
- chemotaxis index ([2]; srh-264 RNAi-treated nematodes): 0.61
- chemotaxis index ([2]; srh-266 RNAi-treated nematodes): 0.25
- chemotaxis index ([2]; srh-274 RNAi-treated nematodes): 0.44
- chemotaxis index ([2]; srh-275 RNAi-treated nematodes): 0.39
- chemotaxis index ([2]; srh-276 RNAi-treated nematodes): 0.58
- chemotaxis index ([2]; srh-277 RNAi-treated nematodes): 0.54
- chemotaxis index ([2]; srh-279 RNAi-treated nematodes): 0.53
- chemotaxis index ([2]; srh-281 RNAi-treated nematodes): 0.51
- chemotaxis index ([2]; srh-282 RNAi-treated nematodes): 0.52
- chemotaxis index ([2]; srh-283 RNAi-treated nematodes): 0.34
- chemotaxis index ([2]; srh-284 RNAi-treated nematodes): 0.73
- chemotaxis index ([2]; srh-291 RNAi-treated nematodes): 0.80
- chemotaxis index ([2]; srh-292 RNAi-treated nematodes): 0.43
- chemotaxis index ([2]; srh-293 RNAi-treated nematodes): 0.71
- chemotaxis index ([2]; srh-297 RNAi-treated nematodes): 0.42
- chemotaxis index ([2]; srh-298 RNAi-treated nematodes): 0.68
- chemotaxis index ([2]; srh-308 RNAi-treated nematodes): 0.56
